# In patent US10167299B2, “1-(3-aminopropyl) substituted cyclic amine compounds, preparation method therefor, and pharmaceutical compositions and uses thereof” (SHANGHAI INSTITUTE OF MATERIA MEDICA, CHINESE ACADEMY OF …, priority 2013, dated 2019):
# Read-outs that look alike come from different tables or passages of the source.
# Biological target: CCR5 (Homo sapiens (Human), UniProt P51681)
# Experiment: Calcium flux inhibition experiment
# Format: cell-based
# Conditions: for calcium influx inhibition effect in words, versus positive control compounds: conclusion from Table 1
# Text: Experiment apparatus: FlexStation II
# Experiment materials: HEK293/CCR5-Gα16 cell line, Fluo-4calcium dye (fluorescent-4 calcium ion dye) and FlexStation instrument.
# Experiment theory: Activation of the receptor can cause the activation of Gα16 protein, thereby activating phospholipase C (PLC) to generate IP3 and DAG by establishing CCR5 and Ga16 co-transfected cell line. IP3 can bind to IP3 receptors on the endoplasmic reticulum and mitochondria in a cell, which can cause the release of intracellular calcium. Thus, determination of changes in intracellular calcium can be used as a method to detect CCR5 activation state. Fluo-4/AM is a fluorescent probe indicator for calcium used to measure calcium ion. As a non-polar lipid-soluble compound, after it enters into cells, AM group is dissociated to release Fluo-4 under the effect of cell lipolysis enzyme. Fluo-4 is a polar molecule and not easy to go through the lipid bilayer membrane, therefore it can stay within the cells for a long time. Ultimately, the level of activated Ga protein can be reflected by measuring the excited fluorescence intensity. If the screened compound can activate CCR5, it can greatly increase the calcium flux reaction; on the contrary, if the screened compound can antagonize CCR5, it can greatly reduce calcium flux reaction.
# 1. HEK293 cells which can stably express CCR5 were inoculated in a 96-well plate and incubated overnight.
# 2. The medium in each well into which cells were innoculated was removed and 40 μl/well of freshly prepared dye was added. The plate was placed in a 37° C. incubator and incubated for 40 minutes at constant temperature.
# 3. The medicament to be determined was diluted with calcium buffer to eight concentration gradients, which is 1×10^−4 M, 1×10^−5 M, 1×10^−6 M, 1×10^−7 M, 1×10^−8 M, 1×10^−9 M, 1×10^−10 M, and 1×10^−11 M, respectively, and homogeneously mixed.
# 4. The dye was removed. Freshly prepared calcium buffer was used to wash for one time, 50 μl of calcium buffer was added.
# 5. FlexStation II was used for detection. 25 μl of calcium buffer containing the medicament to be determined was added automatically from the 15th second.
# [1] = HEK293/CCR5-Gα16 cell line, calcium flux, read-out: CCR5 IC50
# CCR5, sequence (P51681 whole entry): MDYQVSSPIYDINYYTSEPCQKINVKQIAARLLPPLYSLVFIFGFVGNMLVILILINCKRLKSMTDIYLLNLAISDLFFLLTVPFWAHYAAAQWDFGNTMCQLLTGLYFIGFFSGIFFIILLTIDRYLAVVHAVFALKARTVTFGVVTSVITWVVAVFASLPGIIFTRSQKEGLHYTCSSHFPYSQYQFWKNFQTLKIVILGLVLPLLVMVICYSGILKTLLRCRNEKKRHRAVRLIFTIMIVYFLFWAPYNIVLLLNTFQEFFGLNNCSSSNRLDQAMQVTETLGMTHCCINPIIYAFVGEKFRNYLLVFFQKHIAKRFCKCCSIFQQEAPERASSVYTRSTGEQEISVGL
Structure (SMILES),IC50 [1],"calcium influx inhibition effect in words, versus positive control compounds",IC50
"Cc1nnc(C(C)C)n1C1CC2CCC(C1)N2CC[C@H](NC(=O)C1CCCCC1)c1ccc(Cl)s1 (stereo partly drawn) [Compound 113, N-[(1S)-3-[exo-3-(3-isopropyl-5-methyl-4H-1,2,4-triazol-4-yl)-8-azabicyclo[3.2.1]octane-8-yl]-1-(5-chlorothiophen-2-yl)propyl]cyclohexane-1-carboxamide]",8.14 nM,,
"CNC(=O)c1ccc([C@H](CCN2C3CCC2CC(n2c(C)nnc2C(C)C)C3)NC(=O)C2CCCC2)s1 (stereo partly drawn) [Compound 142, 5-[(1S)-1-(cyclopentaneformamido)-3-[exo-3-(3-isopropyl-5-methyl-4H-1,2,4-triazol-4-yl)-8-azabicyclo[3.2.1]octane-8-yl]-propyl]-N-methylthiophene-2carboxamide]",9.55 nM,comparable to the positive control compounds,
COc1ccc([C@H](CCN2C3CCC2CC(n2c(C)nnc2C(C)C)C3)NC(=O)Cn2ncnn2)s1 (stereo partly drawn) [Compound 154],,,23.1 nM
"CC(=O)Nc1ccc([C@H](CCN2C3CCC2CC(n2c(C)nnc2C(C)C)C3)NC(=O)C2CCCC2)s1 (stereo partly drawn) [Compound 139, N-[(1S)-3-[exo-3-(3-isopropyl-5-methyl-4H-1,2,4-triazol-4-yl)-8-azabicyclo[3.2.1]octane-8-yl]-1-(5-acetamidothiophen-2-yl)propyl]cyclopentane-1-carboxamide]",12.3 nM,,
"Cc1nnc(C(C)C)n1C1CC2CCC(C1)N2CC[C@H](NC(=O)C1CCN(S(C)(=O)=O)CC1)c1cccs1 (stereo partly drawn) [Compound 146, N-[(1S)-3-[exo-3-(3-isopropyl-5-methyl-4H-1,2,4-triazol-4-yl)-8-azabicyclo[3.2.1]octane-8-yl]-1-(thiophen-2-yl)propyl]-1-methylsulfonylpiperidine-4-carboxamide]",1.75 nM,better than the positive control compounds,
"Cc1nnc(C(C)C)n1C1CC2CCC(C1)N2CC[C@H](NC(=O)C1CCN(S(C)(=O)=O)CC1)c1ccc(Cl)s1 (stereo partly drawn) [Compound 150, N-[(1S)-3-[exo-3-(3-isopropyl-5-methyl-4H-1,2,4-triazol-4-yl)-8-azabicyclo[3.2.1]octane-8-yl]-1-(5-chlorothiophen-2-yl)propyl]-1-methylsulfonylpiperidine-4-carboxamide]",2.22 nM,better than the positive control compounds,
"Cc1ccc([C@H](CCN2C3CCC2CC(n2c(C)nnc2C(C)C)C3)NC(=O)Cc2nnn[nH]2)s1 (stereo partly drawn) [Compound 159, N-[(1S)-3-[exo-3-(3-isopropyl-5-methyl-4H-1,2,4-triazol-4-yl)-8-azabicyclo[3.2.1]octane-8-yl]-1-(5-methylthiophen-2-yl)propyl]-2-(1H-tetrazol-5-yl)acetamide]",8.76 nM,comparable to the positive control compounds,
"Cc1nnc(C(C)C)n1C1CC2CCC(C1)N2CC[C@H](NC(=O)Cc1nnn[nH]1)c1ccc(F)s1 (stereo partly drawn) [Compound 163, N-[(1S)-3-[exo-3-(3-isopropyl-5-methyl-4H-1,2,4-triazol-4-yl)-8-azabicyclo[3.2.1]octane-8-yl]-1-(5-fluorothiophen-2-yl)propyl]-2-(1H-tetrazol-5-yl)acetamide]",13.3 nM,,
"Cc1nc2c(n1C1CC3CCC(C1)N3CC[C@H](NC(=O)C1CCC(F)(F)CC1)c1ccsc1)CCN(C(=O)C(C)C)C2 (stereo partly drawn) [Compound 43, 4,4-difluoro-N-{(1S)-1-(thiophen-3-yl)-3-[(3-endo)-3-(5-isobutyryl-2-methyl-4,5,6,7-tetrahydro-1H-imidazo[4,5-c]pyridin-1-yl)-8-azabicyclo[3.2.1]octane-8-yl]propyl}cyclohexane-1-carboxamide]",8.34 nM,,
"Cc1nnc(C(C)C)n1C1CC2CCC(C1)N2CC[C@H](NC(=O)Cn1ncnn1)c1ccc(F)s1 (stereo partly drawn) [Compound 157, N-[(1S)-3-[exo-3-(3-isopropyl-5-methyl-4H-1,2,4-triazol-4-yl)-8-azabicyclo[3.2.1]octane-8-yl]-1-(5-fluorothiophen-2-yl)propyl]-2-(2H-tetrazol-2-yl)acetamide]",1.23 nM,better than the positive control compounds,
"CC(=O)N[C@@H](CCN1C2CCC1CC(n1c(C)nc3c1CCN(C(=O)C(C)C)C3)C2)c1cc(C)cs1 (stereo partly drawn) [Compound 145, N-{(1S)-3-[(3-endo)-3-(5-isobutyryl-2-methyl-4,5,6,7-tetrahydro-1H-imidazo[4,5-c]pyridin-1-yl)-8-azabicyclo[3.2.1]octane-8-yl]-1-(4-methylthiophen-2-yl)-propyl}acetamide]",13.3 nM,,
"COc1ccc([C@H](CCN2C3CCC2CC(n2c(C)nnc2C(C)C)C3)NC(=O)Cc2nnn[nH]2)s1 (stereo partly drawn) [Compound 160, N-[(1S)-3-[exo-3-(3-isopropyl-5-methyl-4H-1,2,4-triazol-4-yl)-8-azabicyclo[3.2.1]octane-8-yl]-1-(5-methoxythiophen-2-yl)propyl]-2-(1H-tetrazol-5-yl)acetamide]",,better than the positive control compounds,1.34 nM
"Cc1nnc(C(C)C)n1C1CC2CCC(C1)N2CC[C@H](NC(=O)Cn1ncnn1)c1ccc(Cl)s1 (stereo partly drawn) [Compound 156, N-[(1S)-3-[exo-3-(3-isopropyl-5-methyl-4H-1,2,4-triazol-4-yl)-8-azabicyclo[3.2.1]octane-8-yl]-1-(5-chlorothiophen-2-yl)propyl]-2-(2H-tetrazol-2-yl)acetamide]",9.85 nM,comparable to the positive control compounds,
"COC(=O)c1ccc([C@H](CCN2C3CCC2CC(n2c(C)nnc2C(C)C)C3)NC(=O)C2CCC(F)(F)CC2)s1 (stereo partly drawn) [Compound 88, 4,4-difluoro-N-[(1S)-3-[exo-3-(3-isopropyl-5-methyl-4H-1,2,4-triazol-4-yl)-8-azabicyclo[3.2.1]octane-8-yl]-1-(5-methoxycarbonylthiophen-2-yl)propyl]cyclohexane-1-carboxamide]",9.26 nM,,
"CC(=O)Nc1ccc([C@H](CCN2C3CCC2CC(n2c(C)nnc2C(C)C)C3)NC(=O)C2CCCCC2)s1 (stereo partly drawn) [Compound 138, N-[(1S)-3-[exo-3-(3-isopropyl-5-methyl-4H-1,2,4-triazol-4-yl)-8-azabicyclo[3.2.1]octane-8-yl]-1-(5-acetamidothiophen-2-yl)propyl]cyclohexane-1-carboxamide]",9.75 nM,comparable to the positive control compounds,
"COc1ccc([C@H](CCN2C3CCC2CC(n2c(C)nnc2C(C)C)C3)NC(=O)CC#N)s1 (stereo partly drawn) [Compound 166, N-[(1S)-3-[exo-3-(3-isopropyl-5-methyl-4H-1,2,4-triazol-4-yl)-8-azabicyclo[3.2.1]octane-8-yl]-1-(5-methoxythiophen-2-yl)propyl]-2-cyanoacetamide]",,better than the positive control compounds,6.54 nM
"CCCC(=O)N1CCc2c(nc(C)n2C2CC3CCC(C2)N3CC[C@H](NC(C)=O)c2nccs2)C1 (stereo partly drawn) [Compound 123, N-{(1S)-3-[(3-endo)-3-(5-n-butyryl-2-methyl-4,5,6,7-tetrahydro-1H-imidazo[4,5-c]pyridin-1-yl)-8-azabicyclo[3.2.1]octane-8-yl]-1-(thiazol-2-yl)-propyl}acetamide]",12.1 nM,better than the positive control compounds,
"Cc1nnc(C(C)C)n1C1CC2CCC(C1)N2CC[C@H](NC(=O)Cn1cnnn1)c1cccs1 (stereo partly drawn) [Compound 172, N-[(1S)-3-[exo-3-(3-isopropyl-5-methyl-4H-1,2,4-triazol-4-yl)-8-azabicyclo[3.2.1]octane-8-yl]-1-(thiophen-2-yl)propyl]-2-(1H-tetrazol-1-yl)acetamide]",9.38 nM,better than the positive control compounds,
"Cc1nnc(C(C)C)n1C1CC2CCC(C1)N2CC[C@H](NC(=O)CC#N)c1ccc(C#N)s1 (stereo partly drawn) [Compound 167, N-[(1S)-3-[exo-3-(3-isopropyl-5-methyl-4H-1,2,4-triazol-4-yl)-8-azabicyclo[3.2.1]octane-8-yl]-1-(5-cyanothiophen-2-yl)propyl]-2-cyanoacetamide]",,,7.98 nM
"COC(=O)c1ccc([C@H](CCN2C3CCC2CC(n2c(C)nnc2C(C)C)C3)NC(=O)C2CCC(F)(F)CC2)s1 (stereo partly drawn) [Compound 73, 4,4-difluoro-N-[(1S)-3-[exo-3-(3-isopropyl-5-methyl-4H-1,2,4-triazol-4-yl)-8-azabicyclo[3.2.1]octane-8-yl]-1-(5-methoxycarbonylthiophen-2-yl)propyl]cyclohexane-1-carboxamide]",,,8.23 nM
CCc1ccc([C@H](CCN2C3CCC2CC(n2c(C)nnc2C(C)C)C3)NC(=O)C2CCCC2)s1 (stereo partly drawn) [Compound 66],2.02 nM,better than the positive control compounds,
